According to the supplement of paper PMC11061612:

Experiments:
Test in all cases: combination Emax (second highest fraction inhibited in the dose matrix, 72 h); higher = more inhibition; extreme values may be limits of the assay
[1] = test system: KU812 (Chronic Myelogenous Leukemia)
Method in brief: (§1)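 Cell lines in DMEM/F12 or RPMI with 10% FBS were plated in 1536-well plates, held 24 hours at 37°C, 5% CO2, then given two-drug dose matrices for 72 hours (DMSO typically 0.2%). Viability was read by CellTiter-Glo 2.0 luminescence and scaled as inhibition from 0 (vehicle wells) to 1 (blank wells). Combination Emax is the second-highest inhibition in the matrix; Bliss excess is observed combination effect minus expected EA + EB − EA·EB, EA and EB being single-agent effects.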

[2] = test system: NCI-H3122 (Lung Adenocarcinoma)
Method in brief: as §1

[3] = test system: MOG-G-CCM (Low Grade Glioma)
Method in brief: as §1

[4] = test system: VMRC-RCZ (Kidney Carcinoma)
Method in brief: as §1

[5] = test system: ST486 (Burkitt's Lymphoma)
Method in brief: as §1

[6] = test system: M059J (Glioblastoma)
Method in brief: as §1

[7] = test system: NCI-H526 (Small Cell Lung Carcinoma)
Method in brief: as §1

[8] = test system: SJSA-1 (Osteosarcoma)
Method in brief: as §1

[9] = test system: NCI-H929 (Plasma Cell Myeloma)
Method in brief: as §1

[10] = test system: KP-3 (Pancreatic Carcinoma)
Method in brief: as §1

[11] = test system: CW-2 (Colorectal Carcinoma)
Method in brief: as §1

[12] = test system: T-T (Esophageal Squamous Cell Carcinoma)
Method in brief: as §1

[13] = test system: OCI-AML3 (Acute Myeloid Leukemia)
Method in brief: as §1

[14] = test system: KYSE-270 (Esophageal Squamous Cell Carcinoma)
Method in brief: as §1

[15] = test system: NCCIT (Other Solid Carcinomas)
Method in brief: as §1

[16] = test system: NCI-H2731 (Mesothelioma)
Method in brief: as §1

[17] = test system: SK-GT-4 (Esophageal Adenocarcinoma)
Method in brief: as §1

[18] = test system: NCI-H520 (Squamous Cell Lung Carcinoma)
Method in brief: as §1

[19] = test system: MN-60 (B-Lymphoblastic Leukemia)
Method in brief: as §1

[20] = test system: DMS-114 (Small Cell Lung Carcinoma)
Method in brief: as §1

Compound	combination Emax [1]	combination Emax [2]	combination Emax [3]	combination Emax [4]	combination Emax [5]	combination Emax [6]	combination Emax [7]	combination Emax [8]	combination Emax [9]	combination Emax [10]	combination Emax [11]	combination Emax [12]	combination Emax [13]	combination Emax [14]	combination Emax [15]	combination Emax [16]	combination Emax [17]	combination Emax [18]	combination Emax [19]	combination Emax [20]
C=CCn1c(=O)c2cnc(Nc3ccc(N4CCN(C)CC4)cc3)nc2n1-c1cccc(C(C)(C)O)n1 [AZD1775] + CCc1c2c(nc3ccc(O)cc13)-c1cc3c(c(=O)n1C2)COC(=O)[C@]3(O)CC [SN-38] (first compound max 1 µM, partner max 0.3 µM)	0.87	0.853	0.703	0.462	0.997	0.891	1	0.706	0.927	0.397	0.625	0.776	0.922	0.981	0.841	0.496	0.486	0.808	0.818	0.655
CN(CCO)CC[C@H](CSc1ccccc1)Nc1ccc(S(=O)(=O)NC(=O)c2ccc(N3CCC([C@@H](O)c4ccccc4-c4ccc(Cl)cc4)CC3)cc2)cc1S(=O)(=O)C(F)(F)F [AZD4320] + CS(=O)(=O)CCNCc1ccc(-c2ccc3ncnc(Nc4ccc(OCc5cccc(F)c5)c(Cl)c4)c3c2)o1 [Lapatinib] (first compound max 1 µM, 7x7, partner max 10 µM)	0.973	0.281	0.729	0.598	0.96	0.705	0.995	0.332	0.589	0.363	0.593	0.935	0.884	0.708	0.243	0.858	0.774	0.57	0.206	0.36
Cc1c2c(nn1C)CSCc1cc(n(C)n1)CSc1cc(c3ccccc3c1)OCCCc1c(C(=O)O)n(C)c3c-2c(Cl)ccc13 [AZD5991] + CC(=O)O[C@H]1C(=O)[C@@]2(C)[C@H]([C@H](OC(=O)c3ccccc3)[C@]3(O)C[C@H](OC(=O)[C@H](O)[C@@H](NC(=O)c4ccccc4)c4ccccc4)C(C)=C1C3(C)C)[C@]1(OC(C)=O)CO[C@@H]1C[C@@H]2O [Paclitaxel] (first compound max 1 µM, 7x7, partner max 3 µM)	0.918	0.965	0.936	0.358	0.994	0.865	1	0.725	1	0.365	0.497	0.989	1	0.962	0.984	0.397	0.454	0.769	0.539	0.944
C[C@@H]1COCCN1c1cc(C2([S@](C)(=N)=O)CC2)nc(-c2ccnc3[nH]ccc23)n1 [AZD6738] + C1CC(C1)(C(=O)[O-])C(=O)[O-].N.N.[Pt+2] [Carboplatin] (first compound max 10 µM, 7x7, partner max 10 µM)	0.817	0.674	0.536	0.392	0.865	0.502	0.564	0.477	0.801	0.264	0.537	0.26	0.854	0.779	0.531	0.399	0.463	0.674	0.638	0.4
Cc1cc2ncnn2cc1Nc1ncc2c(n1)n(C1CCOCC1)c(=O)n2C [AZD7648] + COc1cc([C@@H]2c3cc4c(cc3[C@@H](O[C@@H]3O[C@@H]5CO[C@@H](C)O[C@H]5[C@H](O)[C@H]3O)[C@H]3COC(=O)[C@H]23)OCO4)cc(OC)c1O [Etoposide] (first compound max 10 µM, 7x7, partner max 10 µM)	0.792	0.67	0.577	0.399	0.933	0.775	0.999	0.503	0.988	0.312	0.379	0.362	0.943	0.871	0.495	0.542	0.387	0.698	0.829	0.658
C[C@@H](Nc1cc(F)cc(F)c1)c1cc(C(=O)N(C)C)cc2c(=O)cc(N3CCOCC3)oc12 [AZD8186] + C1CN(CCC1(C(=O)N[C@@H](CCO)C2=CC=C(C=C2)Cl)N)C3=NC=NC4=C3C=CN4 [AZD5363] (first compound max 10 µM, 7x7, partner max 10 µM)	0.161	0.522	0.581	0.386	0.151	0.408	0.147	0.426	1	0.312	0.275	0.301	0.428	0.347	0.499	0.305	0.457	0.564	0.193	0.472
C[C@@H](Nc1cc(F)cc(F)c1)c1cc(C(=O)N(C)C)cc2c(=O)cc(N3CCOCC3)oc12 [AZD8186] + CC(=O)c1c(C)c2cnc(Nc3ccc(N4CCNCC4)cn3)nc2n(C2CCCC2)c1=O [Palbociclib] (first compound max 10 µM, 7x7, partner max 10 µM)	0.582	0.742	0.519	0.42	0.813	0.337	0.081	0.376	0.99	0.283	0.374	0.315	0.525	0.311	0.542	0.233	0.422	0.688	0.502	0.468
C[C@@H](Oc1cc(-c2cnn(C3CCNCC3)c2)cnc1N)c1c(Cl)ccc(F)c1Cl [Crizotinib] + Cn1cnc2c(F)c(Nc3ccc(Br)cc3Cl)c(C(=O)NOCCO)cc21 [Selumetinib] (first compound max 10 µM, 7x7, partner max 10 µM)	1	0.916	0.374	0.174	0.936	0.257	0.508	0.82	1	0.208	0.37	0.759	0.997	0.441	0.4	0.519	0.461	0.616	0.38	0.527
O=C(c1cc(Cc2n[nH]c(=O)c3ccccc23)ccc1F)N1CCN(C(=O)C2CC2)CC1 [Olaparib] + CC1(C)CCC(CN2CCN(c3ccc(C(=O)NS(=O)(=O)c4ccc(NCC5CCOCC5)c([N+](=O)[O-])c4)c(Oc4cnc5[nH]ccc5c4)c3)CC2)=C(c2ccc(Cl)cc2)C1 [Venetoclax] (first compound max 10 µM, 7x7, partner max 1 µM)	0.403	0.226	0.168	0.0266	0.217	0.291	0.862	0.118	0.21	0.0923	0.118	0.177	0.427	0.302	0.231	0.0659	0.101	0.119	0.222	0.262
O=C(c1cc(Cc2n[nH]c(=O)c3ccccc23)ccc1F)N1CCN(C(=O)C2CC2)CC1 [Olaparib] + COc1nnc2ccc(N3CCC(c4ccc(OCCN5CCN(C)C(=O)[C@H]5C)cc4)CC3)nn12 [AZD5153] (first compound max 10 µM, 7x7, partner max 1 µM)	0.908	0.596	0.51	0.248	0.897	0.718	0.926	0.539	0.911	0.125	0.48	0.48	1	0.493	0.66	0.362	0.426	0.591	0.733	0.514
O=C(c1cc(Cc2n[nH]c(=O)c3ccccc23)ccc1F)N1CCN(C(=O)C2CC2)CC1 [Olaparib] + Cc1c2c(nn1C)CSCc1cc(n(C)n1)CSc1cc(c3ccccc3c1)OCCCc1c(C(=O)O)n(C)c3c-2c(Cl)ccc13 [AZD5991] (first compound max 10 µM, 7x7, partner max 1 µM)	0.784	0.315	0.222	0.0573	0.558	0.254	0.805	0.0831	1	0.028	0.101	0.801	0.98	0.625	0.527	0.0516	0.0608	0.104	0.22	0.55
N#Cc1cnc(Nc2cc(NC[C@H]3CNCCO3)c(C(F)(F)F)cn2)cn1 [SRA737] + C=CCn1c(=O)c2cnc(Nc3ccc(N4CCN(C)CC4)cc3)nc2n1-c1cccc(C(C)(C)O)n1 [AZD1775] (first compound max 10 µM, partner max 1 µM)	0.796	0.724	0.683	0.51	0.987	0.659	0.753	0.535	0.724	0.294	0.499	0.671	0.934	0.991	0.821	0.357	0.565	0.755	0.642	0.229
